Measured values from PubChem BioAssay AID1863 (Southern Research Specialized Biocontainment Screening …, 2009).

Tested on: S. Typhimurium PhoP-regulated promoter GFP reporter, 4 h
Experiment: PhoP-dependent GFP reporter repression – Salmonella Typhimurium, primary screen (AID 1863)

SMILES	IC50 [µM]
COc1ccc(C(=O)Cn2nc(CNc3ccc(Br)cc3)[n+]3c2CCCCC3)cc1	81.7
Nc1ncn([C@@H]2O[C@H](CO)[C@@H](O)[C@H]2O)c(=O)n1	50.4
CNC(=S)N1CCN(c2c(F)cc3c(=O)c(C(=O)O)cn(C4CC4)c3c2OC)CC1C (stereo not given)	17.6
Oc1cccc(/C=N/Nc2ccc(Cl)nn2)c1O	138
CCn1cc(C(=O)O)c(=O)c2cc(F)c(N3CCN(C)CC3)cc21	1
COc1cc(Cc2cc(N)nc(N)n2)cc(OC)c1OC	4.97
COc1ccc(Nc2cc(C)nc(NCc3ccccc3)n2)cc1	97.1
Cc1cc2nc3ccc(=[N+](C)C)cc-3sc2cc1N	32.3
Clc1ccc(OCCCNCc2ccccc2)c(Br)c1	68.7
CC[n+]1c(/C=C/c2ccc(N(C)C)cc2)ccc2ccccc21	54.8
CCCCCc1ccc(OCCOCCn2c[n+](C)c3ccccc32)c(CCCCC)c1	43.6
Cc1ccc(Nc2cc(C)c3c(O)cccc3n2)cc1C	75.3
CCc1ccc(NC(=O)C[n+]2cc(-c3ccc(C)cc3)n3c2CCC3)cc1	106
O=C(N/N=C\c1cccc([N+](=O)[O-])c1O)C1COc2ccccc2O1 (stereo not given)	105
CN1CCc2c(sc(NC(=O)c3ccc([N+](=O)[O-])o3)c2C(N)=O)C1	52.8
Cc1ccc(C(=O)O)cc1N=Cc1cc(Br)cc(Br)c1O	93.1
COc1c(N2CCN(C(=S)Nc3ccc(F)cc3)C(C)C2)c(F)cc2c(=O)c(C(=O)O)cn(C3CC3)c12 (stereo not given)	7.48
CCn1cc(C(=O)NCCCN(C)C)c(=O)c2cc(F)c(N3CCN(C)CC3)cc21	49.1
Oc1c(Br)cc(Br)cc1C=NCc1ccccc1	102
CCCCCCCCn1c2c(c(=N)c3c1CCC3)CCCC2	67.5
O=[N+]([O-])c1cc(Cl)c(O)c2ncccc12	6.16
CN1CCN(C(c2ccc(Cl)cc2)c2cc(Cl)c3cccnc3c2O)CC1 (stereo not given)	44.1
C#CCOCCOCCOCCNc1nc(N2CCN(C(=O)CCCCCCCCCCNC(=O)[C@H]([C@@H](C)CC)n3cc(CCCCN=C(N)N)nn3)CC2)nc(N2CCN(C(=O)CCCCCCCCCCNC(=O)[C@H]([C@@H](C)CC)n3cc(CCCCN=C(N)N)nn3)CC2)n1	78.7
Cc1scc(C(=O)N/N=C/c2ccc([N+](=O)[O-])o2)c1C	110
CC1CCC(C(C)C)C(OC(=O)Cn2c(COc3ccccc3)[n+](C)c3ccccc32)C1 (stereo not given)	72.3
O=C(N/N=C/c1cc([N+](=O)[O-])ccc1O)c1ccncc1	58.4
CCCCCCCSc1cc(OC)c(CCNC)cc1OC	55.7
Clc1ccc(CNCc2cccs2)cc1Cl	73.3

SMILES	IC50 [µM]
CCN1CCN(C(c2cccnc2)c2cc(Cl)c3cccnc3c2O)CC1 (stereo not given)	78.5
O=C(Cn1nc(CNc2ccc(Cl)cc2)[n+]2c1CCCCC2)c1ccc(Br)cc1	92.1
C/C(=N\Nc1nc2ccccc2[nH]1)c1ccccn1	34.3
COc1ccc(C(=O)N/N=C/c2sc3ccccc3c2O)cc1	107
O=[N+]([O-])c1cc(CN2CCCC2)c2cccnc2c1O	71.5
CC1CCCC(C)N1/N=C/c1c[nH]c2ccc(Br)cc12 (stereo not given)	94.9
CCCCCCCCCCCCCCCC[N+](C)(C)C	34.3
O=[N+]([O-])c1cc(CN2CCOCC2)c2cccnc2c1O	44.2
O=C(O)CSc1cc(NS(=O)(=O)c2cccc([N+](=O)[O-])c2)c2ccccc2c1O	133
O=C(c1ccccc1)c1c2c(cc3sc4ccccc4[n+]13)-c1cccc3cccc-2c13	79.6
Cc1ccc(Cn2c(=N)n(CC(=O)c3ccc([N+](=O)[O-])cc3)c3ccccc32)cc1	143
Cc1ccc(C(=O)Sc2cccccc2=O)cc1	21.4
COc1ccc(/C=N/Nc2cc(C)nc3ccccc23)cc1	38.5
CS(=O)(=O)c1ccc([C@@H](O)[C@@H](CO)NC(=O)C(Cl)Cl)cc1	70.3
CCCCN(CCCC)C(=O)c1cn(CC)c2cc(N3CCN(C)CC3)c(F)cc2c1=O	11.4
CCCCCOc1ccc(CSC(=N)N)cc1[N+](=O)[O-]	82.7
CC1COc2c(N3CCN(C)CC3)c(F)cc3c(=O)c(C(=O)O)cn1c23 (stereo not given)	0.39
O=C1c2ccccc2NC(c2ccc(-c3ccc(Br)cc3)o2)N1O (stereo not given)	106
CCCCCCCCCCCCCCCC[n+]1cccc(C(=O)N(CC)CC)c1	25.3
Cc1cccc(Nc2c3c(nc4ccccc24)CCC3)c1	106
NC1=NC[C@H](Cc2ccc(O)cc2)N1CCC12CC3CC(CC(C3)C1)C2	75.3
NCCc1c(-c2ccccc2)n(-c2ccccc2)c2ccccc12	65.9
CN(C)c1ccc(/C=C/c2ccc3ccccc3[n+]2C)cc1	18.7
COc1c(N2CCNC(C)C2)c(F)cc2c(=O)c(C(=O)O)cn(C3CC3)c12 (stereo not given)	0.58
CC(Cc1ccccc1)NCc1ccccc1O (stereo not given)	40.3
c1ccc(-c2cccc(-c3ccccn3)n2)nc1	43.1
CCc1ccc(-c2nn(-c3ccccc3)cc2CSC(=N)N)cc1	37.1
